From ChEMBL document CHEMBL4265942, “Four new antitumor metabolites isolated from a mutant 3-f-31 strain derived from Penicillium purpurogenum G59” (Eur J Med Chem, 2018) come the findings set out here.

Series [1] concerns HepG2. Nature of the series: Antiproliferative activity against human HepG2 cells assessed as inhibition of cell growth at 1 uM after 72 hrs by sulforhodamine B assay relative to control. The format is functional. The note with it: HepG2, 72 h. A general note: Sulforhodamine B stains cellular protein and so reports cell mass.
Series [2] concerns K562. Nature of the series: Antiproliferative activity against human K562 cells assessed as inhibition of cell growth at 1 uM after 72 hrs by MTT assay relative to control. The format is functional. Conditions: K562, 72 h. Background: Tetrazolium assays rely on reduction of a dye to a coloured formazan, in cell work by metabolically active cells.
The subject of series [3] is SW480. The series is described as follows: Antiproliferative activity against human SW480 cells assessed as inhibition of cell growth at 1 uM after 72 hrs by sulforhodamine B assay relative to control. The note with it: SW480, 72 h. The format is functional.
Series [4] deals with NCI-H1975. The series is described as follows: Antiproliferative activity against human NCI-H1975 cells assessed as inhibition of cell growth at 1 uM after 72 hrs by sulforhodamine B assay relative to control. The note with it: NCI-H1975, 72 h. The format is functional.
In series [5] the test system is PANC-1. Nature of the series: Antiproliferative activity against human PANC1 cells assessed as inhibition of cell growth at 1 uM after 72 hrs by sulforhodamine B assay relative to control. Type of series: functional. Conditions: PANC-1, 72 h.
In series [6] the test system is HT-29. Nature of the series: Antiproliferative activity against human HT-29 cells assessed as inhibition of cell growth at 1 uM after 72 hrs by sulforhodamine B assay relative to control. The format is functional. The note with it: HT-29, 72 h.
Series [7] deals with MCF7. The series is described as follows: Antiproliferative activity against human MCF7 cells assessed as inhibition of cell growth at 1 uM after 72 hrs by sulforhodamine B assay relative to control. Type of series: functional. Conditions: MCF7, 72 h.
For series [8], the system named is BXPC-3. The series is described as follows: Antiproliferative activity against human BxPC3 cells assessed as inhibition of cell growth at 1 uM after 72 hrs by sulforhodamine B assay relative to control. The format is functional. Conditions: BXPC-3, 72 h.
The subject of series [9] is HCT-116. Nature of the series: Antiproliferative activity against human HCT116 cells assessed as inhibition of cell growth at 1 uM after 72 hrs by sulforhodamine B assay relative to control. The format is functional. Conditions: HCT-116, 72 h.
Series [10] relates to HL-60. Nature of the series: Antiproliferative activity against human HL60 cells assessed as inhibition of cell growth at 1 uM after 72 hrs by MTT assay relative to control. The note with it: HL-60, 72 h. Type of series: functional.
In series [11] the test system is PC-3. Nature of the series: Antiproliferative activity against human PC3 cells assessed as inhibition of cell growth at 1 uM after 72 hrs by sulforhodamine B assay relative to control. Type of series: functional. The note with it: PC-3, 72 h.
Series [12] concerns HeLa. The series is described as follows: Antiproliferative activity against human HeLa cells assessed as inhibition of cell growth at 1 uM after 72 hrs by sulforhodamine B assay relative to control. The format is functional.
The test system of series [13] is A549. The series is described as follows: Antiproliferative activity against human A549 cells assessed as inhibition of cell growth at 1 uM after 72 hrs by sulforhodamine B assay relative to control. The format is functional. The note with it: A549, 72 h.
Series [14] concerns LS180. The series is described as follows: Antiproliferative activity against human LS180 cells assessed as inhibition of cell growth at 1 uM after 72 hrs by sulforhodamine B assay relative to control. Type of series: functional. Conditions: LS180, 72 h.
Series [15] relates to HCT-116. Nature of the series: Down regulation of AKT expression in human HCT116 cells after 48 hrs by Western blot analysis. Type of series: functional, cell-based. (In western blotting, separated proteins are transferred to a membrane and probed.)
In series [16] the test system is HCT-116. Nature of the series: Down regulation of phosphorylated STAT3 expression in human HCT116 cells after 48 hrs by Western blot analysis. Type of series: functional, cell-based.
Series [17] has as its system L929. The series is described as follows: Cytotoxicity against mouse L929 cells assessed as inhibition of cell growth after 72 hrs by MTT assay. Type of series: cell-based. The note with it: L929, 72 h.
The subject of series [18] is HL-60. The series is described as follows: Antiproliferative activity against human HL60 cells assessed as inhibition of cell growth after 72 hrs by MTT assay. Type of series: functional, cell-based. The note with it: HL-60, 72 h.
Series [19] has as its system HCT-116. The series is described as follows: Down regulation of survivin expression in human HCT116 cells after 48 hrs by Western blot analysis. The format is functional, cell-based.
The test system of series [20] is LS180. Nature of the series: Antiproliferative activity against human LS180 cells assessed as inhibition of cell growth after 72 hrs by sulforhodamine B assay. The format is functional, cell-based. Conditions: LS180, 72 h.
The subject of series [21] is BXPC-3. Nature of the series: Antiproliferative activity against human BxPC3 cells assessed as inhibition of cell growth after 72 hrs by sulforhodamine B assay. The format is functional, cell-based. Conditions: BXPC-3, 72 h.
The test system of series [22] is HCT-116. The series is described as follows: Down regulation of HSP90 expression in human HCT116 cells after 48 hrs by Western blot analysis. The format is functional, cell-based.
Series [23] has as its system HT-29. The series is described as follows: Antiproliferative activity against human HT-29 cells assessed as inhibition of cell growth after 72 hrs by sulforhodamine B assay. Type of series: functional, cell-based. Conditions: HT-29, 72 h.
Series [24] relates to MCF7. Nature of the series: Antiproliferative activity against human MCF7 cells assessed as inhibition of cell growth after 72 hrs by sulforhodamine B assay. The format is functional, cell-based. The note with it: MCF7, 72 h.
The subject of series [25] is PANC-1. Nature of the series: Antiproliferative activity against human PANC1 cells assessed as inhibition of cell growth after 72 hrs by sulforhodamine B assay. Conditions: PANC-1, 72 h. The format is functional, cell-based.
Series [26] deals with HepG2. The series is described as follows: Antiproliferative activity against human HepG2 cells assessed as inhibition of cell growth after 72 hrs by sulforhodamine B assay. The format is functional, cell-based. Conditions: HepG2, 72 h.
Series [27] deals with PC-3. The series is described as follows: Antiproliferative activity against human PC3 cells assessed as inhibition of cell growth after 72 hrs by sulforhodamine B assay. Type of series: functional, cell-based. Conditions: PC-3, 72 h.
The test system of series [28] is HCT-116. The series is described as follows: Down regulation of ERK1/2 expression in human HCT116 cells after 48 hrs by Western blot analysis. Type of series: functional, cell-based.
For series [29], the system named is HeLa. Nature of the series: Antiproliferative activity against human HeLa cells assessed as inhibition of cell growth after 72 hrs by sulforhodamine B assay. The format is functional, cell-based.
The test system of series [30] is NCI-H1975. The series is described as follows: Antiproliferative activity against human NCI-H1975 cells assessed as inhibition of cell growth after 72 hrs by sulforhodamine B assay. The format is functional, cell-based. The note with it: NCI-H1975, 72 h.
For series [31], the system named is HCT-116. The series is described as follows: Down regulation of Raf1 expression in human HCT116 cells after 48 hrs by Western blot analysis. Type of series: functional, cell-based.
Series [32] concerns SW480. The series is described as follows: Antiproliferative activity against human SW480 cells assessed as inhibition of cell growth after 72 hrs by sulforhodamine B assay. Conditions: SW480, 72 h. The format is functional, cell-based.
Series [33] relates to HCT-116. The series is described as follows: Down regulation of STAT3 expression in human HCT116 cells after 48 hrs by Western blot analysis. The format is functional, cell-based.
Series [34] concerns A549. Nature of the series: Antiproliferative activity against human A549 cells assessed as inhibition of cell growth after 72 hrs by sulforhodamine B assay. The note with it: A549, 72 h. Type of series: functional, cell-based.
Series [35] concerns HCT-116. Nature of the series: Antiproliferative activity against human HCT116 cells assessed as inhibition of cell growth after 72 hrs by sulforhodamine B assay. The format is functional, cell-based. Conditions: HCT-116, 72 h.
Series [36] has as its system K562. Nature of the series: Antiproliferative activity against human K562 cells assessed as inhibition of cell growth after 72 hrs by MTT assay. Conditions: K562, 72 h. The format is functional, cell-based.
In series [37] the test system is HCT-116. The series is described as follows: Antitumor activity against human HCT116 cells xenografted in BALB/c nu/nu mouse assessed as tumor growth inhibition at 5 mg/kg, iv administered every other day for 14 days measured 24 hrs post last dose relative to control. The note with it: HCT-116, iv, read-out: TGI. Type of series: functional.
The test system of series [38] is Mus musculus. Nature of the series: Toxicity in BALB/c nu/nu mouse xenografted with human HCT116 cells assessed as spleen index at 5 mg/kg, iv administered every other day for 14 days measured 24 hrs post last dose (reference value: 0.41 +/- 0.08%). Type of series: organism-based. The note with it: in vivo.

Counter-ions that a name gives are not always drawn.

By inhibition is commonly meant the drop in the measured response relative to a control, in per cent. Consider `COc1cccc2c1C(=O)c1c(O)c3c(c(O)c1C2=O)C[C@@](O)(C(=O)CO)C[C@@H]3O[C@H]1C[C@H](N)[C@H](O)[C@H](C)O1` [DOXORUBICIN HYDROCHLORIDE], for which the inhibition at 1 µM in series [1], in [2], in series [3], in [4], in [5] and in [6] was 70 to 98% throughout. The inhibition at 1 µM in [7], in series [8], in series [9], in series [10], in [11] and in [12] was 70 to 98% throughout. Besides, the inhibition at 1 µM in series [13] and in series [14] was 70 to 98% each time.
For orientation: IC50 means the concentration at which inhibition is half-maximal. Consider `CCCCCC[C@@H](C)C[C@@H](C)/C=C/C(=O)N[C@@H]1C[C@@]2(O[C@@H]1O)[C@@H]1O[C@@H]1[C@](O)(CC(C)=O)[C@@H]1O[C@@H]12`, for which the Activity entry in [15], in series [16], in series [19], in [22], in series [28] and in series [31] was “Dose-dependent effect” throughout. For the same molecule, the Activity result in series [33] was “Dose-dependent effect”. In addition, the IC50 in [17] is 4.68 µM; in series [18] it was 3.13 µM; in series [20], 17 µM; in series [21], 7.3 µM; in [23], 10.2 µM; in series [24], 4.11 µM. The 50% inhibitory concentration (IC50) was 4.42 µM in [25]; 6.58 µM in series [26]; 7.6 µM in series [27]; 6.25 µM in series [29]; 3.37 µM in series [30]; 3.57 µM in [32]. The results for the IC50 in series [34], in series [35] and in series [36] were 9.83 µM, 2.54 µM and 5.16 µM, respectively.
`CC(=O)O[C@@]12CO[C@@H]1C[C@H](O)[C@@]1(C)C(=O)[C@H](O)C3=C(C)[C@@H](OC(=O)[C@H](O)[C@@H](NC(=O)OC(C)(C)C)c4ccccc4)C[C@@](O)([C@@H](OC(=O)c4ccccc4)[C@H]21)C3(C)C` [DOCETAXEL ANHYDROUS]: in [37], the inhibition in vivo at 5 mg/kg was 87.4%. In series [38], the Activity_index is on record as 0.25.
Consider `CCCCCC[C@@H](C)C[C@@H](C)/C=C/C(=O)N[C@H]1C[C@@]2(O[C@@H]1OC)[C@@H]1O[C@@H]1[C@](O)(CC(C)=O)[C@@H]1O[C@@H]12`, for which the IC50 in series [17] came out at 3.69 µM; in [18], 10.8 µM; in [20], 13.9 µM; in [21], 10.5 µM; in series [23], 9.85 µM; in series [24], 4.06 µM. Moreover, the IC50 in [25] was 5.77 µM; in series [26] it was 9.58 µM; in [27], 6.33 µM; in series [29] it was 8.65 µM; in series [30], 4.77 µM; in [32] it was 3.85 µM. In addition, the values for the concentration for half-maximal inhibition (IC50) in series [34], in series [35] and in [36] were 14.8 µM, 2.61 µM and 6.46 µM, respectively.
